Like-named read-outs stand apart in the source and are kept apart here.
How the values were obtained:
A2A AdoR [1] = molecular target: A2A AdoR (Rattus norvegicus, UniProt P30543); experiment: Increase of coronary conductance in rat isolated perfused hearts
Method: (§3) Adult Sprague Dawley rats and Hartley guinea pigs of either sex weighing from 230 to 260 grams and 300 to 350 grams, respectively were used in this study. Animals were anesthetized by peritoneal injection of a cocktail containing ketamine and xylazine (ketamine 100 mg, xylazin 20 mg/ml). The chest was opened and the heart quickly removed. The heart was briefly rinse in ice-cold Krebs-Henseleit solution (see below), and the aorta cannulated. […] The heart was electrically paced at a fixed cycle length of 340 ms (250 beats/min) using a bipolar electrode place on the left atrium. The electrical stimuli were generated by a Grass stimulator (Model S48, W. Warwick, R.I.) and delivered through a Stimuli Isolation Unit (Model SIU5, Astro-Med, Inc., NY) as square-wave pulses of 3-msec in duration and amplitude of at least twice the threshold intensity.
Coronary perfusion pressure (CPP) was measured using a pressure transducer, connected to the aortic cannula via a T-connector positioned approximately 3 cm above the heart. Coronary perfusion pressure was monitored throughout the experiment and recorded either on a chart recorder (Gould Recorder 2200S) or a computerized recording system (PowerLab/4S, ADinstruments Pty Ltd, Australia). Only hearts with CPP ranging from 60 to 85 mmHg (in the absence of drugs) were used in the study.
One concentration was made from the stock solution by dilution into saline to yield solution of either 2×10^−4 or 2×10^−5 M. These solutions were injected into the perfusion line of the apparatus as boluses of 20 μl. In some experiments the solutions were placed into a 30 ml glass syringe and the drugs were infused at rates necessary to achieve the desired perfusate concentrations (e.g, 10, 100 nM, etc).
Hearts were instrumented for continuous recording of coronary perfusion pressure (A2A response) and atrioventricular (A-V) conduction time or S-H interval (A1 response).

A2A AdoR [2] = experiment: Coronary blood flow and reversal time of coronary vasodilation in open-chest anesthetized pigs; settings: pig, intracoronary infusion 50 μg/kg/min
Method: Farm pigs weighing 22-27 kg were used in this study. […] In addition, animals were used in accordance with the guidelines of the University of Kentucky Institutional Animal Care and Use Protocol.
Anesthesia was anesthetized with ketamine (20 mg/kg, i.m.) and sodium pentobarbital (15-18 mg/kg i.v.). Anesthesia was maintained with additional sodium pentobarbital (1.5-2 mg/kg, i.v.) every 15-20 minutes. Ventilation was maintained via a tracheotomy using a mixture of room air and 100% O2. Tidal volume, respiratory rate and fraction of O2 in inspired air were adjusted to maintain normal arterial blood gas (ABG) and pH values. […] Lactate Ringers solution was administered via an ear or femoral vein, at 5-7 ml/kg/min after a initial bolus of 300-400 ml. A catheter was inserted into the femoral artery to monitor arterial blood pressure and to obtain ABG samples.
The heart was exposed through a median sternotomy, and suspended in a pericardial cradle. Left ventricular pressure (LVP) was measured with a 5F high fidelity pressure sensitive tip transducer (Millar Instruments, Houston, Tex.) placed in the left ventricular cavity via the apex and secured with a purse string suture. A segment of the left anterior descending coronary artery (LAD), proximal to the origin of the first diagonal branch, was dissected free of, surrounding tissue. A transmit time perivascular flow probe (Transonic Systems Inc., Ithaca, N.Y.) was placed around this segment to measure coronary blood flow (CBF). Proximal to the flow probe a 24 g modified angiocatheter was inserted for intracoronary infusions. […] A2A AdoR agonists were dissolved in DMSO to produce stock concentrations of 1-5 mM, which were diluted in 0.9% saline and infused at rates of 1-1.5 ml/min. The A2A AdoR agonists were administered intracoronary. To maintain blood pressure constant, phenylephrine was administered intravenously. The phenylephrine stock solution (30 mM) was prepared in distilled water.
Prior to initiating the experiment, a 30-minute stabilization period followed the completion of all instrumentation. After obtaining the baseline hemodynamic data the first intracoronary infusion of an A2A ADOR agonist was initiated. Infusions were maintained for 4-5 minutes to allow LAD CBF to reach a steadystate, after which the infusion was terminated. The time to recovery of 50% (t 0.5) and 90% (t 0.9) of baseline CBF were recorded. Ten to 15 minutes after CBF returned to pre-drug values a second infusion with a different agonist was started. […] The effect of a maximum of three different agonists was determined in each experiment.

A1 AdoR [3] = molecular target: T1, A1 AdoR (Rattus norvegicus, UniProt P25099); experiment: A-V nodal conduction time (negative dromotropic effect) in rat isolated perfused hearts; settings: Compound 18 0.1-30 μM, CVT510 100-400 nM
T1 construct: from tissue; host or cells: Sprague Dawley rat isolated perfused heart
T1 sequence (P25099 1-326): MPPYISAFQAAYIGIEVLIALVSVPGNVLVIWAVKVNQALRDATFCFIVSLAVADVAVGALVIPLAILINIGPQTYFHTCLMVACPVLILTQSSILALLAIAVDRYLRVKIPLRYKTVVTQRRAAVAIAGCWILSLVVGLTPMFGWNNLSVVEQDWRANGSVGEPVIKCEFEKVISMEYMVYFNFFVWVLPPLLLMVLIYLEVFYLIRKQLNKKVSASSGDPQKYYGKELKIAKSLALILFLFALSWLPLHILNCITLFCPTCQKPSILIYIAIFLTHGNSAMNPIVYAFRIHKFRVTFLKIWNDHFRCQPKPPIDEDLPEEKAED
Method: In experiments in which A1 adenosine receptor-mediated negative dromotropic effect was measured, atrial and ventricular surface electrograms were recorded during constant atrial pacing. The effect of various adenosine receptor agonists on atrioventricular conduction time was determined as described previously by Jenkins and Belardinelli Circ. Res. 63: 97-116 (1988).
(§1) Rats and guinea pigs, of either sex weighing from 230 to 260 grams and 300 to 350 grams, respectively, were used in this study. Animals were anesthetized by peritoneal injection of a cocktail containing ketamine and xylazine (ketamine 100 mg, xylazine 20 mg/ml). The chest was opened and the heart quickly removed. The heart was briefly rinse in ice-cold Krebs-Henseleit solution (see below), and the aorta cannulated. […]
(§2) A1 adenosine receptor-mediated depression of A-V nodal conduction time (negative dromotropic effect) was measured. Atrial and ventricular surface electrograms in rats and H is bundle electrogram in guinea pigs, were recorded during constant atrial pacing. The effects of Compound 18 on atrioventricular conduction time and stimulus-to-His-bundle (S-H interval) were determined as described previously by Jenkins and Belardinelli (1988).
The effects of Compound 18 on coronary conductance (A2A effect) and atrioventricular conduction time or stimulus-to-His-bundle (S-H) interval (A1 effect) was then determined. […]

human A2A AdoR = human A2A AdoR (Homo sapiens, UniProt P29274); experiment: Competition binding, [3H]ZM241385 binding sites on HEK-hA2AAR cell membranes; settings: for Ki: HEK-hA2AAR Cells, [3H]ZM241385, Gpp(NH)p 100 μM
Chain of human A2A AdoR (P29274 whole entry): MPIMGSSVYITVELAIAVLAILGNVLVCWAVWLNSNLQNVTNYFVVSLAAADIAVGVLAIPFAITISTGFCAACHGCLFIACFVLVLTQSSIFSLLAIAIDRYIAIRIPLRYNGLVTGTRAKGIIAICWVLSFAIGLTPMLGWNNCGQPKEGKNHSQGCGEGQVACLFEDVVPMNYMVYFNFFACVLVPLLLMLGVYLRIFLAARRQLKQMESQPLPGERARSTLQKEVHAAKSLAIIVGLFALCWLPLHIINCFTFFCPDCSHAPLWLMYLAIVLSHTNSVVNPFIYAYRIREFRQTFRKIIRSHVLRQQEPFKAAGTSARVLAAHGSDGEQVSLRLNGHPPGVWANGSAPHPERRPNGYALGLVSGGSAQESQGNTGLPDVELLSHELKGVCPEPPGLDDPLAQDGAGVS
Method: To make membranes, cells were detached from the culture plates into ice-cold 50 mmol/L Tris-HCI buffer (pH7.4). The cell suspensions were homogenized with Polytron at setting 4 for 30 seconds, and spun at 48,000 g for 15 minutes. The pellets were washed three times by re-suspension in ice-cold Tris-HCI buffer and centrifugation. The final pellet was re-suspended in a small volume of Tris-HCI, aliquoted and frozen at −80° C. until used for receptor binding assays. The protein concentration of membrane suspensions was determined using the Bradford method (Bio-Rad) with bovine serum as standards.
At the end of incubation, bound and free radioligands were separated by filtration through Whatman GF/C glass fiber filters using a Brandel tissue harvester (Gaithersburg, Md.). Triplicate determinations were performed for each concentration of the competing agent.
The affinity (Ki) of various CVT compounds for the A1 and A2A adenosine receptor were determined by their potency to compete for [^3H]CPX (A1) or [^3H]ZM241385 (A2A) binding sites on membranes derived from CHO-hA1AdoR, PC12 or HEK-HA2AAdoR cells.

human A1 AdoR = molecular target: T2, human A1 AdoR (Homo sapiens, UniProt P30542); experiment: Competition binding, [3H]DPCPX binding sites on CHO-hA1AdoR cell membranes; settings: Gpp(NH)p 100 μM
T2 construct: expressed in transfected cells
T2 sequence (P30542 1-326): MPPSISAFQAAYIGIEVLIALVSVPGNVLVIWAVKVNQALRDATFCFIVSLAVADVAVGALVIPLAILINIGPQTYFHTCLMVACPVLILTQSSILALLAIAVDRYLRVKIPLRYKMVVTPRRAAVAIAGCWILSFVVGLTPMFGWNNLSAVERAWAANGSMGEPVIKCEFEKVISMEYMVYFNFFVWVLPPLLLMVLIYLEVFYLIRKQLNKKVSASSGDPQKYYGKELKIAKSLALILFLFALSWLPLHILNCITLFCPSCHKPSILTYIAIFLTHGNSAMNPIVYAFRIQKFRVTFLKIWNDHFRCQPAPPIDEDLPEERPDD

A1 AdoR [4] = molecular target: T3, A1 AdoR (Cavia porcellus, UniProt P47745); experiment: Stimulus-to-His-bundle (S-H) interval in guinea pig isolated perfused hearts; settings: concentrations as high as 50 μM
T3 construct: from tissue; host or cells: Hartley guinea pig isolated perfused heart
T3 sequence (P47745 1-326): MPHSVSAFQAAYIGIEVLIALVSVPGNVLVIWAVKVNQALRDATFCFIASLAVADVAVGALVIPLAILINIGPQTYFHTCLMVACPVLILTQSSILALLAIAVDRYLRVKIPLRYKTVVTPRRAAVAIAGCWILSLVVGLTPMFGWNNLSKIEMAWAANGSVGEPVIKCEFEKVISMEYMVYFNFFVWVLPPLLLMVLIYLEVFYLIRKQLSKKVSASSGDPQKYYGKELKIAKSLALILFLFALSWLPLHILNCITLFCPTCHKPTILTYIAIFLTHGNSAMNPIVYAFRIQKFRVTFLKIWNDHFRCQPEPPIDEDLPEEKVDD
Method: as §1, §2
The effects of Compound 18 on coronary conductance (A2A effect) and atrioventricular conduction time or stimulus-to-His-bundle (S-H) interval (A1 effect) was then determined. […] In each experiment, concentration-response relationship of Compound 18 (n=5 rats, 5 guinea pigs) to increase coronary conductance and to prolong A-V conduction time or S-H interval was determined. […]

A2A receptor = A2A receptor (Sus scrofa, UniProt K9IW67); experiment: Affinity for the A2A receptor in a pig striatum membrane prep (displacement of tritiated ZM 241385); format: binding; settings: pig striatal membranes, tritiated ZM 241385 2 nM, 23 C 2 h; read-out: A2a Ki
Chain of A2A receptor (K9IW67 1-409): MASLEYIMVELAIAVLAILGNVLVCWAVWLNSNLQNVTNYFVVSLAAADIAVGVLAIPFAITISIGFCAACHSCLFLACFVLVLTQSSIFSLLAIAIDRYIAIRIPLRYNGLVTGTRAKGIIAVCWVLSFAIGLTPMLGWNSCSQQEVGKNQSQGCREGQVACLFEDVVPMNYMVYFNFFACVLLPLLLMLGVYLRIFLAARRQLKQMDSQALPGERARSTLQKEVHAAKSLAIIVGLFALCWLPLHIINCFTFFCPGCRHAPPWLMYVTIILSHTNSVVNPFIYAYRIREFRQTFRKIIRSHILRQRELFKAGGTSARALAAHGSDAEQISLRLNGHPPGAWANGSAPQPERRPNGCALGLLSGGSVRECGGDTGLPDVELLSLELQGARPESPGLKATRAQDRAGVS
Method: Compounds of this invention were assayed to determine their affinity for the A2A receptor in a pig striatum membrane prep. Briefly, 0.2 mg of pig striatal membranes were treated with adenosine deaminase and 50 mM Tris buffer (pH=7.4) followed by mixing. […] After incubation at 23 C for 2 h, then the solutions were filtered using a membrane harvester using multiple washing of the membranes (3×). The filter disks were counted in scintillation cocktail affording the amount of displacement of tritiated ZM by the competitive binding compounds of this invention. Greater than a 5 point curve was used to generate IC50's and the number of experiments is indicated in the column marked in Table 1 below.

A2A adenosine receptor = A2A adenosine receptor (Rattus norvegicus, UniProt P30543); experiment: Reversal time of coronary vasodilation after bolus injection in rat isolated perfused hearts; settings: rat isolated perfused hearts, bolus into perfusion line
Chain of A2A adenosine receptor (P30543 whole entry, the tested form may be a part): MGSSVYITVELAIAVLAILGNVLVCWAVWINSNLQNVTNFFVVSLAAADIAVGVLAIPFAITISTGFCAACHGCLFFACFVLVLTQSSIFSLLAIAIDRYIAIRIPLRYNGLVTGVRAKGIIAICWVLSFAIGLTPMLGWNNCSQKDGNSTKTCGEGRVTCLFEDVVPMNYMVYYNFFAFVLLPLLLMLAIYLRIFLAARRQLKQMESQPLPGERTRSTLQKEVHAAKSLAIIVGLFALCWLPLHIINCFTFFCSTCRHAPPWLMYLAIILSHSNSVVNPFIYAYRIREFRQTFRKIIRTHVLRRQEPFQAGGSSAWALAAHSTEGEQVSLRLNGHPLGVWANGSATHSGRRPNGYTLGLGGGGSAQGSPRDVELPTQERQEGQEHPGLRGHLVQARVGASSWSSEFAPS
Method: Animals were anesthetized by peritoneal injection of a cocktail containing ketamine and xylazine (ketamine 100 mg, xylazine 20 mg/ml). The chest was opened and the heart quickly removed. The heart was briefly rinse in ice-cold Krebs-Henseleit solution (see below), and the aorta cannulated. […] The heart was electrically paced at a fixed cycle length of 340 ms (250 beats/min) using a bipolar electrode place on the left atrium. The electrical stimuli were generated by a Grass stimulator (Model S48, W. Warwick, R.I) and delivered through a Stimuli Isolation Unit (Model SIU5, Astro-Med, Inc., NY) as square-wave pulses of 3 msec in duration and amplitude of at least twice the threshold intensity.
Coronary perfusion pressure (CPP) was measured using a pressure transducer, connected to the aortic cannula via a T-connector positioned approximately 3 cm above the heart. Coronary perfusion pressure was monitored throughout the experiment and recorded either on a chart recorder (Gould Recorder 2200S) or a computerized recording system (PowerLab/4S, ADInstruments Pty Ltd, Australia). Only hearts with CPP ranging from 60 to 85 mmHg (in the absence of drugs) were used in the study.
Protocol: Bolus injections. […] The times to 50% (t 0.5) and 90% (t 0.9) reversal of the decrease in CPP were measured. Each heart was exposed to a maximum of three vasodilators.

A2A AdoR [5] = experiment: Closing statement of Example 8 on potency and efficacy as A2A AdoR agonist coronary vasodilator (test not specified)
A2A AdoR [6] = molecular target: A2A AdoR (Cavia porcellus, UniProt P46616); experiment: Increase of coronary conductance in guinea pig isolated perfused hearts
Chain of A2A AdoR (Cavia porcellus, UniProt P46616) (P46616 whole entry, the tested form may be a part): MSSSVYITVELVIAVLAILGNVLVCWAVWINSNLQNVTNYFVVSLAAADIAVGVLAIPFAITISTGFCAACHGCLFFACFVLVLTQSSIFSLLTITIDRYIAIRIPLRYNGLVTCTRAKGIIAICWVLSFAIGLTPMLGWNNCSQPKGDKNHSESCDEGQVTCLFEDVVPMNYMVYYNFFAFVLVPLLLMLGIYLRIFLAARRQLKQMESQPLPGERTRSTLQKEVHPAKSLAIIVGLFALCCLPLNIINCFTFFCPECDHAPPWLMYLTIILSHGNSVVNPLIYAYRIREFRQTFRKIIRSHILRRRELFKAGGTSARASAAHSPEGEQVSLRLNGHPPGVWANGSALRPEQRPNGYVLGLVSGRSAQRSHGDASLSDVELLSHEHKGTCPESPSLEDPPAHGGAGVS
Method: as §3
Coronary perfusion pressure (CPP) was measured using a pressure transducer, connected to the aortic cannula via a T-connector positioned approximately 3 cm above the heart. Coronary perfusion pressure was monitored throughout the experiment and recorded either on a chart recorder (Gould Recorder 2200S) or a computerized recording system (PowerLab/4S, ADinstruments Pty Ltd, Australia). Only hearts with CPP ranging from 60 to 85 mmHg (in the absence of drugs) were used in the study. […]

Chain of A2A AdoR (Rattus norvegicus, UniProt P30543) (P30543 whole entry, the tested form may be a part): as the sequence (P30543 whole entry, the tested form may be a part) above

CCCCCn1cc(-c2nc(N)c3ncn([C@@H]4O[C@H](CO)[C@@H](O)[C@H]4O)c3n2)cn1 [Compound 18, (4S,2R,3R,5R)-2-[6-amino-2-(1-pentylpyrazol-4-yl)purin-9 yl]-5-(hydroxymethyl)oxolane-3,4-diol]
EC50 (A2A AdoR [1]; EC50 to increase coronary conductance in rat hearts, Example 7, n=5 rats): 0.0689 ± 0.0096 µM | EC50 (A2A AdoR [1]; Potency (EC50) to increase coronary conductance, Rat, rat isolated perfused hearts, Table 3): 0.0679 ± 0.0167 µM | effect on coronary conductance (A2A AdoR [1]; isolated perfused hearts (36 rats and 18 guinea pigs), atrial cycle length 340 msec): concentration-dependent increase | relative potency in increasing coronary conductance (A2A AdoR [1]; isolated perfused hearts, rat and guinea pig): about as potent as adenosine | CBF ("Fold Increase") above baseline, maximal (A2A AdoR [2]): 3.33 ± 0.58 fold | t0.5, time to 50% reversal of the increase in coronary blood flow (A2A AdoR [2]): 3.1 ± 0.9 min | t0.9, time to 90% reversal of the increase in coronary blood flow (A2A AdoR [2]): 12.0 ± 1.0 min | effect on A-V nodal conduction time (A1 AdoR [3]): did not prolong | greater affinity for A2A than A1 AdoR (human A2A AdoR; A2A vs A1 AdoR): > 2 fold | Ki (human A2A AdoR; Binding Affinity Ki): 2.9 µM | Ki (human A2A AdoR; Binding Affinity pKi ± SEM): 2.88 µM | Ki (human A1 AdoR; read-out: Binding Affinity Ki, CHO-hA1AR): 5.84 µM | Ki (human A1 AdoR; read-out: Binding Affinity pKi ± SEM, CHO-hA1AR (converted)): 5.75 µM | effect on S-H interval (A1 AdoR [4]): no prolongation | Ki (A2A receptor): 7.09 ± 0.78 µM | t 0.5, time to 50% reversal of the increase in coronary conductance (A2A adenosine receptor): 3.4 ± 0.5 min | t 0.9, time to 90% reversal of the increase in coronary conductance (A2A adenosine receptor): 8.4 ± 2.2 min | agonist efficacy to cause coronary vasodilation (A2A AdoR [5]): full agonists | less potent than the prototypical agonist CGS21680 (A2A AdoR [5]; relative to CGS21680): 10 fold | EC50 (A2A AdoR [6]): 0.203 ± 0.022 µM
